Measurements reported in ChEMBL document CHEMBL1131078, “Small molecular probes for G-protein-coupled C5a receptors: conformationally constrained antagonists derived from the C terminus of the human plasma protein C5a” (J Med Chem, 1998).
Activity calls are given as the source filed them. The rule behind the calls is not given here. Where a SMILES comes first, the peptide text is derived from it.

Tests used:
[1] = molecular target: T1, C5a anaphylatoxin chemotactic receptor 1 (Homo sapiens, UniProt P21730); assay: 50% reduction in myeloperoxidase secretion from human PMNs mediated by 100 nM C5a
T1 sequence (P21730 whole entry): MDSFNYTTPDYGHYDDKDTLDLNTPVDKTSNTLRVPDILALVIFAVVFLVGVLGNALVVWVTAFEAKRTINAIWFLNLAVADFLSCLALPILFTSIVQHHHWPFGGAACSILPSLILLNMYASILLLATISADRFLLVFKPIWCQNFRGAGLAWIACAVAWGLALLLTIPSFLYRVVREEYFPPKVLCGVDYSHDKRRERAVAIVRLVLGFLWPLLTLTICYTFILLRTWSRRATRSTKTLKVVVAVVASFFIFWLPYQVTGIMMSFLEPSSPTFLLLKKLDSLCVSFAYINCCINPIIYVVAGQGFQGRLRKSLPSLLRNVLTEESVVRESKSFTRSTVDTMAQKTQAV

[2] = species on record: Homo sapiens; assay: Agonist activity at dose range 0.1 nM to 1 mM in human PMNs; No agonistic activity; type: functional
[3] = molecular target: T1, C5a anaphylatoxin chemotactic receptor 1; assay: 50% reduction in binding of [125I]C5a to human polymorphonuclear cells (PMNs); type: cell-based, PMN

CN[C@@H](Cc1ccccc1)C(=O)N[C@@H](CCCCN)C(=O)N1CCC[C@H]1C(=O)N[C@@H](CC(C)C)C(=O)N[C@@H](Cc1c[nH]c2ccccc12)C(=O)N[C@@H](CCCN=C(N)N)C(=O)O (HELM PEPTIDE1{[meF].K.P.L.W.R}$$$$V2.0)
IC50 [1]: > 1000 µM

CN[C@@H](Cc1ccccc1)C(=O)N[C@@H](CCCCN)C(=O)N1CCC[C@H]1C(=O)N[C@H](CC1CCCCC1)C(=O)N[C@@H](Cc1c[nH]c2ccccc12)C(=O)N[C@@H](CCCN=C(N)N)C(=O)O
Agonistic activity [2]: inactive

CC[C@H](C)[C@H](N)C(=O)N[C@@H](CO)C(=O)N[C@@H](Cc1cnc[nH]1)C(=O)N[C@@H](CCCCN)C(=O)N[C@@H](CC(=O)O)C(=O)N[C@@H](CCSC)C(=O)N[C@@H](CCC(N)=O)C(=O)N[C@@H](CC(C)C)C(=O)NCC(=O)N[C@@H](CCCNC(=N)N)C(=O)O (H-ISHKDMQLGR-OH)
IC50 [3]: > 1000 µM

CC(=O)N[C@@H](Cc1ccccc1)C(=O)N[C@H]1CCCCNC(=O)[C@H](CCCN=C(N)N)NC(=O)[C@H](Cc2c[nH]c3ccccc23)NC(=O)[C@@H](CC2CCCCC2)NC(=O)[C@@H]2CCCN2C1=O
Agonistic activity [2]: inactive

CC(=O)N[C@@H](Cc1ccccc1)C(=O)N[C@H]1CCCNC(=O)[C@@H](CCCN=C(N)N)NC(=O)[C@H](Cc2c[nH]c3ccccc23)NC(=O)[C@@H](CC2CCCCC2)NC(=O)[C@@H]2CCCN2C1=O
Agonistic activity [2]: inactive

CN[C@@H](Cc1ccccc1)C(=O)N[C@@H](CCCCN)C(=O)N1CCC[C@H]1C(=O)N[C@H](CC1CCCCC1)C(=O)N[C@@H](Cc1c[nH]c2ccccc12)C(=O)N[C@H](CCCN=C(N)N)C(N)=O
Agonistic activity [2]: inactive

CN[C@@H](Cc1ccccc1)C(=O)N[C@@H](CCCCN)C(=O)N1CCC[C@H]1C(=O)N[C@@H](CC1CCCCC1)C(=O)N[C@@H](Cc1c[nH]c2ccccc12)C(=O)N[C@@H](CCCN=C(N)N)C(=O)O
Agonistic activity [2]: inactive
